Assay results taken from patent US20260364080A1, “PYRAZOLO-PYRIMIDINONE COMPOUNDS FOR USE IN METHODS OF INHIBITING WEE1 A KINASE” (Acrivon Therapeutics, Inc., priority 2023, published 2026).
Read-outs that look alike come from different tables or passages of the source.

Experiments:
[1] = target: T1, Wee1A kinase (CDK1 Tyr15 phosphorylation in ACHN renal cell carcinoma cells) (Homo sapiens, UniProt P30291); assay: High-content imaging of pCdk1 Y15, Wee1A kinase target engagement in ACHN cells; format: cell-based
T1 construct: pCDK1 Tyr15 immunofluorescence read-out
T1 sequence (P30291 whole entry): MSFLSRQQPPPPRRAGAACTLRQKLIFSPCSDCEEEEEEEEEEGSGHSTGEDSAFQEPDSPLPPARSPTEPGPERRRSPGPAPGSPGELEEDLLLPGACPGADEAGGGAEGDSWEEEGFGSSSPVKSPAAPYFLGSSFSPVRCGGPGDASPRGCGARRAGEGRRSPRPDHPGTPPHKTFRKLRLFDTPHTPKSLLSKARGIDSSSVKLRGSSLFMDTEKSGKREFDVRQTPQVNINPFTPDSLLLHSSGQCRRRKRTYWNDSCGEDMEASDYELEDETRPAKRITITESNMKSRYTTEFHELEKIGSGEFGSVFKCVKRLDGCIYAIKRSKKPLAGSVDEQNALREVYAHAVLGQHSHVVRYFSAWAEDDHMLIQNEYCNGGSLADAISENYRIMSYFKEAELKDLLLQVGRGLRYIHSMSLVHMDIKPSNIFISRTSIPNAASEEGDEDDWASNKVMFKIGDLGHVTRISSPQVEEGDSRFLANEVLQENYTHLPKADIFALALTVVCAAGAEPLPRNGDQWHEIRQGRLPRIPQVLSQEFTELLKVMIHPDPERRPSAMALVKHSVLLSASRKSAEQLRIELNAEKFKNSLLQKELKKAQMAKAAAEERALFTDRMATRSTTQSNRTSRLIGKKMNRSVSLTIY
Outline: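 ACHN cells exposed to compound for 4 h over 7–5,000 nM or 0.3–200 nM, then fixed and immunostained for pCDK1 Y15 with DAPI nuclear counterstain. The percentage of pCdk1 Y15 nucleus-positive cells relative to DMSO control was imaged per well; EC50 from dose-response curves.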

[2] = target: T2, Myt1 kinase (recombinant PMYT-1) (Homo sapiens, UniProt Q99640); assay: Myt1 kinase binding assay (LanthaScreen Eu Kinase Binding Assay)
T2 construct: full length PMYT-1 was expressed by baculovirus in insect cells; purchased Invitrogen A30984; host or cells: insect cells (baculovirus)
T2 sequence (Q99640 1-499): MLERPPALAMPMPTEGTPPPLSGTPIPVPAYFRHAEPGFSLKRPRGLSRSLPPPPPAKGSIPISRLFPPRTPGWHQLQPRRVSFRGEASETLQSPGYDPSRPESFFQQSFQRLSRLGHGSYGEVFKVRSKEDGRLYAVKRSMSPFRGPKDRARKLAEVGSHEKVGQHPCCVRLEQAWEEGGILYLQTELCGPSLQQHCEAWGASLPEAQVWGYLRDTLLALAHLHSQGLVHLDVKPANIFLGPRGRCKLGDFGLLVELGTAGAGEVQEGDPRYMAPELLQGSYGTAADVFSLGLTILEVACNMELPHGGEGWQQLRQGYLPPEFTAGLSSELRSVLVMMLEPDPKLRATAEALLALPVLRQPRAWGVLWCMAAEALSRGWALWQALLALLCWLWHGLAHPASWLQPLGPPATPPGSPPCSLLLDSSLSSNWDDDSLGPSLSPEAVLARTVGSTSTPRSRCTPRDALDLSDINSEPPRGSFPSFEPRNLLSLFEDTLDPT
Outline: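 The binding affinity of compounds for Myt1 kinase was measured with a LanthaScreen Europium (Eu) Kinase Binding Assay, a time-resolved FRET format in which test compounds compete against a labeled kinase tracer, and the results were expressed as IC50 values describing compound binding to Myt1.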

[3] = target: T3, recombinant human Wee1A kinase (Homo sapiens, UniProt P30291); assay: Wee1A kinase binding assay (LanthaScreen Eu time-resolved FRET)
T3 construct: full length Wee1 kinase was expressed by baculovirus in insect cells; purchased Invitrogen PV3817; host or cells: insect cells (baculovirus)
T3 sequence (P30291 whole entry): as the sequence (P30291 whole entry) above
Outline: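 Full-length, baculovirus-expressed GST-tagged Wee1A (5 nM) was mixed with 2 nM Eu-anti-GST antibody, 30 nM kinase tracer 178 and compound (1% DMSO). Buffer was 50 mM HEPES pH 7.5, 10 mM MgCl2, 1 mM EGTA, 0.01% Brij-35, incubated 60 min at room temperature. TR-FRET 665/615 nm emission ratios from duplicates were curve-fitted.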

[4] = 4 h treatment, nuclear positivity for pCdk1 Y15 vs DMSO control, read-out: CDK1 Tyr15 Phosphorylation EC50
[5] = 3 nM tracer 178, 2.5 nM PMYT-1, 1 nM Eu-labeled antibody, read-out: Myt1 kinase Binding IC50
[6] = 30 nM tracer 178, 5 nM Wee1A kinase, 2 nM Eu-labeled antibody, 60 minutes at room temperature, read-out: Wee1A kinase Binding IC50
[7] = read-out: CDK1 Tyr15 Phosphorylation EC50, 4 h treatment, nuclear positivity for pCdk1 Y15 vs DMSO control
[8] = Myt1 kinase Binding IC50, 3 nM tracer 178, 2.5 nM PMYT-1, 1 nM Eu-labeled antibody

EC50 [1, 4] [nM]	IC50 [2, 5] [nM]	IC50 [3, 6] [nM]	EC50 [1, 7] [nM]	IC50 [2, 8] [nM]	IC50 [3] [nM]	Compound
100 to 500	< 20	< 10				C=CCn1c(=O)c2cnc(Nc3ccc4nccnc4c3)nc2n1-c1cccc(OC2CCNCC2)n1 [Compound 239, 2-allyl-1-[6-(4-piperidyloxy)-2-pyridyl]-6-(6-quinoxalinylamino)-1,2-dihydro-3H-1,2,5,7-tetraazainden-3-one]
100 to 500	20 to 100	< 10				C=CCn1c(=O)c2cnc(Nc3ccc4cn(C)nc4c3)nc2n1-c1cccc(OC2CCNCC2)n1 [Compound 393, 2-allyl-6-((2-methyl-2H-indazol-6-yl)amino)-1-(6-(piperidin-4-yloxy)pyridin-2-yl)-1,2-dihydro-3H-pyrazolo[3,4-d]pyrimidin-3-one]
100 to 500	100 to 500	< 10				C=CCn1c(=O)c2cnc(Nc3ccc(F)c(C)c3)nc2n1-c1cccc(NC2CCNCC2)n1 [Compound 128, 2-allyl-6-(4-fluoro-3-toluidino)-1-[6-(4-piperidylamino)-2-pyridyl]-1,2-dihydro-3H-1,2,5,7-tetraazainden-3-one]
> 1000	> 500	< 10				C=CCn1c(=O)c2cnc(Nc3cnn(CCC)c3)nc2n1-c1cccc(OC2CCNCC2)n1 [Compound 179, 2-allyl-1-[6-(4-piperidyloxy)-2-pyridyl]-6-(1-propyl-4-pyrazolylamino)-1,2-dihydro-3H-1,2,5,7-tetraazainden-3-one]
100 to 500	100 to 500	< 10				C=CCn1c(=O)c2cnc(Nc3ccc4c(cnn4C)c3)nc2n1-c1ccnc(OC2CCNCC2)n1 [Compound 350, 2-allyl-6-((1-methyl-1H-indazol-5-yl)amino)-1-(2-(piperidin-4-yloxy)pyrimidin-4-yl)-1,2-dihydro-3H-pyrazolo[3,4-d]pyrimidin-3-one]
100 to 500	20 to 100	< 10				C=CCn1c(=O)c2cnc(Nc3ccc(C#N)cc3)nc2n1-c1cccc(OC2CCNCC2)n1 [Compound 300, p-{2-allyl-3-oxo-1-[6-(4-piperidyloxy)-2-pyridyl]-1,2-dihydro-3H-1,2,5,7-tetraazainden-6-ylamino}benzonitrile]
< 100	20 to 100	< 10				C=CCn1c(=O)c2cnc(Nc3cccc(-n4cccn4)c3)nc2n1-c1cccc(OC2CCN(C)CC2)n1 [Compound 364, 2-allyl-1-[6-(1-methyl-4-piperidyloxy)-2-pyridyl]-6-[m-(1-pyrazolyl)phenylamino]-1,2-dihydro-3H-1,2,5,7-tetraazainden-3-one]
100 to 500	20 to 100	< 10				C=CCn1c(=O)c2cnc(Nc3cccc(-c4cccnc4)c3)nc2n1-c1cccc(OC2CCN(C)CC2)n1 [Compound 368, 2-allyl-1-[6-(1-methyl-4-piperidyloxy)-2-pyridyl]-6-[m-(3-pyridyl)phenylamino]-1,2-dihydro-3H-1,2,5,7-tetraazainden-3-one]
500 to 1000	100 to 500	< 10				C=CCn1c(=O)c2cnc(Nc3cc(C)nc(C(F)(F)F)c3)nc2n1-c1cccc(OC2CCN(C)CC2)n1 [Compound 202, 6-{[2-methyl-6-(trifluoromethyl)pyridin-4-yl]amino}-1-{6-[(1-methylpiperidin-4-yl)oxy]pyridin-2-yl}-2-(prop-2-en-1-yl)-1H,2H,3H-pyrazolo[3,4-d]pyrimidin-3-one]
500 to 1000	20 to 100	< 10				C=CCn1c(=O)c2cnc(Nc3ccc(OCC(F)(F)F)cc3)nc2n1-c1cccc(NC2CCNCC2)n1 [Compound 130, 2-allyl-1-[6-(4-piperidylamino)-2-pyridyl]-6-[p-(2,2,2-trifluoroethoxy)phenylamino]-1,2-dihydro-3H-1,2,5,7-tetraazainden-3-one]
< 100	100 to 500	< 10				C=CCn1c(=O)c2cnc(Nc3ccc4c(cnn4C)c3)nc2n1-c1cccc(O[C@@H]2CCN[C@H](C)C2)n1 (stereo in doubt) [Compound 381, 2-allyl-6-((1-methyl-1H-indazol-5-yl)amino)-1-(6-(((2R,4R)-2-methylpiperidin-4-yl)oxy)pyridin-2-yl)-1,2-dihydro-3H-pyrazolo[3,4-d]pyrimidin-3-one]
			> 1000	> 500	< 10	C=CCn1c(=O)c2cnc(Nc3cnn(C(C)C)c3)nc2n1-c1cccc(N(C)C2CCNCC2)n1 [Compound 169, 1-{6-[methyl(piperidin-4-yl)amino]pyridin-2-yl}-2-(prop-2-en-1-yl)-6-{[1-(propan-2-yl)-1H-pyrazol-4-yl]amino}-1H,2H,3H-pyrazolo[3,4-d]pyrimidin-3-one]
500 to 1000	20 to 100	< 10				CCn1c(=O)c2cnc(Nc3ccc(C#N)cc3)nc2n1-c1cccc(OC2CCNCC2)n1 [Compound 302, p-{2-ethyl-3-oxo-1-[6-(4-piperidyloxy)-2-pyridyl]-1,2-dihydro-3H-1,2,5,7-tetraazainden-6-ylamino}benzonitrile]
< 100	100 to 500	< 10				C=CCn1c(=O)c2cnc(Nc3ccc4c(cnn4C)c3)nc2n1-c1cccc(OC2CCNC(C)(C)C2)n1 (stereo not drawn) [Compound 337, 2-allyl-1-(6-((2,2-dimethylpiperidin-4-yl)oxy)pyridin-2-yl)-6-((1-methyl-1H-indazol-5-yl)amino)-1,2-dihydro-3H-pyrazolo[3,4-d]pyrimidin-3-one]
< 100	20 to 100	< 10				C=CCn1c(=O)c2cnc(Nc3ccc4c(cnn4C)c3)nc2n1-c1cccc(O[C@@H]2CCN[C@@H](C)C2)n1 (relative stereo) [Compound 405, rel-2-allyl-6-((1-methyl-1H-indazol-5-yl)amino)-1-(6-(((2R,4S)-2-methylpiperidin-4-yl)oxy)pyridin-2-yl)-1,2-dihydro-3H-pyrazolo[3,4-d]pyrimidin-3-one]
< 100	20 to 100	< 10				CCCn1c(=O)c2cnc(Nc3ccc4c(cnn4C)c3)nc2n1-c1cccc(OC2CCN(C)CC2)n1 [Compound 111, 6-[(1-methyl-1H-indazol-5-yl)amino]-1-{6-[(1-methylpiperidin-4-yl)oxy]pyridin-2-yl}-2-propyl-1H,2H,3H-pyrazolo[3,4-d]pyrimidin-3-one]
500 to 1000	20 to 100	< 10				C=CCn1c(=O)c2cnc(Nc3ccc(Br)cc3)nc2n1-c1cccc(NC2CCNCC2)n1 [Compound 143, 6-[(4-bromophenyl)amino]-1-{6-[(piperidin-4-yl)amino]pyridin-2-yl}-2-(prop-2-en-1-yl)-1H,2H,3H-pyrazolo[3,4-d]pyrimidin-3-one]
> 1000	> 500	< 10				C=CCn1c(=O)c2cnc(Nc3ccc(Cl)cc3)nc2n1-c1cccc(N(C)[C@@H]2CCCNC2)n1 [Compound 171, 1-{6-[N—(R)-3-piperidyl-N-methylamino]-2-pyridyl}-2-allyl-6-(p-chlorophenylamino)-1,2-dihydro-3H-1,2,5,7-tetraazainden-3-one]
< 100	20 to 100	< 10				C=CCn1c(=O)c2cnc(Nc3ccc(F)cc3)nc2n1-c1ccnc(OC2CCN(C)CC2)n1 [Compound 348, 2-allyl-6-((4-fluorophenyl)amino)-1-(2-((1-methylpiperidin-4-yl)oxy)pyrimidin-4-yl)-1,2-dihydro-3H-pyrazolo[3,4-d]pyrimidin-3-one]
			100 to 500	> 500	< 10	C=CCn1c(=O)c2cnc(Nc3cnn(C(C)C)c3)nc2n1-c1cccc(N(C)C2CCN(C)CC2)n1 [Compound 174, 1-{6-[methyl(1-methylpiperidin-4-yl)amino]pyridin-2-yl}-2-(prop-2-en-1-yl)-6-{[1-(propan-2-yl)-1H-pyrazol-4-yl]amino}-1H,2H,3H-pyrazolo[3,4-d]pyrimidin-3-one]
